Test results from patent US20070207967A1, “Peptide Inhibitors of Matrix Metalloproteinase Activity” (CTT CANCER TARGETING TECHNOLOGIES OY, priority 2004, published 2007).
pIC50: −log10 of the molar value.

How the values were obtained:
uPAR [1] = test: uPAR cleavage on THP-1 cells; type: cell-based, human; settings: InhI 20 μM, CTT 200 μM, aprotinin 25 μg/ml
Source text: (§1) uPAR clevage. […] Chymotrypsin cleavage was done without aprotinin.

uPAR [2] = test: uPAR cleavage on HT1080 cells; type: cell-based, human; settings: for Inhibition of uPAR cleavage: HT1080, InhI 20 μM, aprotinin 25 μg/ml, benzamidine 20 μM, 48 h
Source text: as §1

HT1080 cells = test: Pericellular proteolysis (gelatinolysis) of HT1080 cells; type: cell-based, human; settings: HT1080, 48 h, PDBu, fibronectin/FITC-labelled gelatin coating
Protocol: Pericellular proteolysis. Microtiter wells were coated with a mixture of fibronectin (10 μg/ml) and FITC-labelled gelatin (100 μg/ml) followed by saturation with 1% BSA in PBS. HT1080 cells (50 000 in 100 μl 0.1% BSA/DMEM) were incubated in the presence of 20 nM PDBu (4β-phorbol-12,13-dibutyrate, SigmaAldrich) and the peptides or the MMP-2/MMP-9 selective inhibitor InhI (Calbiochem). As a control non-activated cells and medium without the cells were used. Gelatinolysis after 48 hours was measured as the increase of fluorescence from a 50 μl aliquot of the conditioned medium using Wallac Victor^2 reader.

pro-MMP-9 [3] = biological target: T1, pro-MMP-9 (Homo sapiens, UniProt P14780); test: Phage binding to pro-MMP-9 with competitors; settings: competitor peptides 20 μM, gelatin 2.5 μg/ml; for Binding of the CRV-phage to pro-MMP-9, competition: TIMP-1 2.5 μg/ml
Protocol: (§2) Phage display. Phage display selections were made using random peptide libraries CX7-10C and X9-10 (13). Purified human pro-MMP-9 (9) or recombinant MMP-9 C domain (2 μg/ml) was immobilized on microtiter wells and the wells were blocked with BSA. The phage were added in 50 mM Hepes (pH 7.5)/5 mM CaCl2/1 μM ZnCl2/150 mM NaCl/2% BSA. After three rounds of selection the phage sequences were determined (14). The phage binding specificity was tested with pro-MMPs or the recombinant domains (20 ng/well). The phage (10^8 transducing units/well) were allowed to bind in the absence or presence of competitor peptides (20 μM), gelatin (2.5 μg/ml) or TIMP-1 (2.5 μg/ml, Calbiochem) followed by washings with PBS/0.05% Tween20 (PBST). The phage were detected with a peroxidase-conjugated anti-phage antibody (Amersham Biosciences).

[4] = biological target: T2, aminophenylmercuric acetate (APMA)-activated MMP-2 (Homo sapiens, UniProt P08253); test: Gelatinase inhibition assay (gelatin degradation), MMP-2; type: biochemical; settings: biotinylated gelatin substrate
T2 sequence (P08253 110-660): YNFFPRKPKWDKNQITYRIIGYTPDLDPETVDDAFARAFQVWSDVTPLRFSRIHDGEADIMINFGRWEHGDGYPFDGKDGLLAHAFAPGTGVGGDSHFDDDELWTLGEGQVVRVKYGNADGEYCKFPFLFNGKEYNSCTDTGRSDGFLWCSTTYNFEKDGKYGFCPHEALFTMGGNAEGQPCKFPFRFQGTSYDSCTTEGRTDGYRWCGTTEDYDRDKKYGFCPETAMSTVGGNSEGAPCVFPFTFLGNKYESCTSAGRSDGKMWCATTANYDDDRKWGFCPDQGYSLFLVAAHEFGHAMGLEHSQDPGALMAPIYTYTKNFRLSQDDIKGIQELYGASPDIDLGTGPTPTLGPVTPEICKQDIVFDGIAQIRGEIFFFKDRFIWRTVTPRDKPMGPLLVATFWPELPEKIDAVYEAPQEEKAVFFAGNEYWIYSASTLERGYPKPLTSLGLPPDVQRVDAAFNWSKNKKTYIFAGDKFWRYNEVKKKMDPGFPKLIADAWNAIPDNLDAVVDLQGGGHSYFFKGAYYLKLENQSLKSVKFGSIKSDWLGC
Protocol: (§3) Gelatinase inhibition assay. Inhibition of aminophenylmercuric acetate (APMA)-activated MMP-2 and trypsin-activated MMP-9 was performed using biotinylated gelatin as a substrate (15).

pro-MMP-9 [5] = biological target: T1, pro-MMP-9; test: Pro-MMP-9 activation in THP-1 cells, zymography; type: cell-based; settings: THP-1, pro-MMP-3 and plasminogen, peptides 200 μM
Protocol: Activation of MMP-9. THP-1 cells (40 000/100 μl) or confluent HT1080 cells were incubated for 16 h in the presence or absence of 2.5 μg/ml plasminogen, 0.5 μg/ml pro-MMP-3 (Oncogene Research Products), 40 nM PDBu, and the peptides at a 200 μM concentration unless otherwise indicated. Aliquots of the conditioned media were analyzed by gelatin zymography (9). […] The samples were analyzed by gelatin zymography.

αM integrin I domain = αM integrin I domain (Homo sapiens, UniProt P11215); test: Pro-MMP-9 binding to αM integrin I domain
Protocol: Pro-MMP-9 and gelatin binding to leukocyte αM integrin. Pro-MMP-9 binding to the αM I domain in the presence of peptides was studied as described (12). Gelatin binding to the pro-MMP-^9/αMβ2 integrin complex was studied by immobilizing the integrin αMβ2 (12) or αIIbβ3 as a control (Enzyme Research Laboratories, South Bend, Ind.) (1 μg/well) in TBS/1 mM CaCl2/1 mM MgCl2 followed by saturation of the wells with 1% BSA in PB ST. Pro-MMP-9 (100 ng/well) was incubated for 2 h and the unbound pro-MMP-9 was washed away. Biotinylated gelatin (2.5 μg/ml) was allowed to bind for 30 min at room temperature. Bound gelatin was detected with streptavidin-peroxidase.

CBD [6] = biological target: T3, CBD (Homo sapiens, UniProt P14780); test: CBD binding to fibronectin and vitronectin, solid phase; settings: 20 μM peptides, biotinylated CBD
T3 construct: CBD (amino acids Gly^204-Gly^373) was amplified from MMP-9 cDNA; made in house; host or cells: E. coli
Protocol: (§4) Gelatin and CBD binding assays. Recombinant CBD or human plasma fibronectin (Calbiochem) (0.2 μg/ml in TBS) was immobilized in microtiter wells. The wells were saturated with 1% BSA-PBST. Biotinylated gelatin (0.2 μg/ml in 1% BSA-PBST) was added with or without peptides at the concentrations indicated or with an excess of unlabelled gelatin (10 μg/ml) and allowed to bind for 1 h. Bound gelatin was detected with streptavidin-peroxidase. CBD binding to immobilized fibronectin, the 110-kDa fragment of fibronectin (Upstate Biotechnology) or urea-denaturated human plasma vitronectin (17) (1 μg/well) was studied using biotinylated CBD (5 μg/ml) in 1% BSA-PBST in the presence or absence of 20 μM peptides.

CBD [7] = biological target: T3, CBD; test: Gelatin binding to immobilized CBD; settings: biotinylated gelatin
Protocol: as §4

THP-1 monocytic cells = test: THP-1 cell migration on GST-LLG-C4; type: cell-based, human; settings: GST-LLG-C4 substratum, 16 h
Protocol: (§5) Cell migration and invasion. The cell migration assay was conducted using transwell migration chambers (8 μm pore size, Costar) in 10% serum-containing medium (2,14). Briefly, the membranes were coated on both sides with 40 μg/ml GST or with the β2 integrin ligand peptide […]-GST fusion (GST-LLG-C4) and blocked with complete medium. THP-1 cells (50 000/100 μl) were preincubated with the peptides for 1 h in serum-containing medium. The cells were allowed to migrate for 16 h and were then stained with crystal violet and counted (14). The HT1080 (20 000 cells/I100 μl) invasion assay was performed as the THP-1 migration, except that matrigel coated transwells (BD Biosciences) were used.

trypsin-activated MMP-9 = trypsin-activated MMP-9 (Homo sapiens, UniProt P14780); test: Gelatinase inhibition assay (gelatin degradation), MMP-9; type: biochemical; settings: biotinylated gelatin substrate
Protocol: as §3

HT1080 fibrosarcoma = test: HT1080 invasion through matrigel; type: cell-based, human
Protocol: as §5

fibronectin = test: Gelatin binding to fibronectin; design: species or system human; settings: data not shown
Protocol: as §4

gelatinase [8] = test: Gelatin degradation assay, gelatinase not specified; type: biochemical
Protocol: as §3

gelatinase [9] = settings: 100 μM concentration; ref (15); cited from earlier work
MMP-9 C domain = biological target: T4, MMP-9 C domain (Homo sapiens, UniProt P14780); test: CRV phage binding to recombinant MMP-9 C domain; settings: TIMP-1 2.5 μg/ml
T4 construct: MMP-9 (Asp^494-Asp^688) were expressed as described (16); made in house; host or cells: E. coli (β5 fragment)
T4 sequence (P14780 513-707 limits assumed): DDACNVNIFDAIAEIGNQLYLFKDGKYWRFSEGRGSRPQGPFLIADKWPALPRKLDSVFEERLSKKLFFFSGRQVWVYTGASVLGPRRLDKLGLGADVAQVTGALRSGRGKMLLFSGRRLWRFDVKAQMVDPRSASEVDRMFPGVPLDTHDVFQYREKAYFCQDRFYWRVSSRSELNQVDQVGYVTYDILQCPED
Protocol: as §2
Expression of the MMP and integrin domains. CBD (amino acids Gly^204-Gly^373) was amplified from MMP-9 cDNA with the oligonucleotides 5′-[…]-3′ and 5′-[…]-3′ incorporating NdeI and PstI restriction sites. The PCR product was ligated into pTWIN vector (New England Biolabs). CBD was expressed in E. coli and purified using gelatin-sepharose (Amersham Biosciences). For some experiments, CBD was biotinylated with sulfo-NHS-LC-biotin (Pierce). The C-terminal domains of MMP-2 (Glu^438-Cys^631) and MMP-9 (Asp^494-Asp^688) were expressed as described (16). […]

CBD [10] = biological target: T3, CBD; test: Pepspot membrane assay of CBD binding; settings: 0.2 μg/ml biotinylated CBD
Protocol: Peptide synthesis. The phage peptides were initially prepared in a recombinant form using intein fusions (12,15). Chemical peptide synthesis was done using Fmoc-chemistry and the purity and integrity of the peptides was verified by mass spectroscopy (15). The peptides were dissolved in water, except the CRV and DDGW peptides, which were dissolved in 50 mM NaOH at a 10 mM concentration and then diluted into PBS to neutralize the pH. The […] and […] peptides were synthesized on a cellulose membrane. The membrane was blocked with 3% BSA in TBS/0.05% Tween 20, and incubated with 0.2 μg/ml biotinylated CBD. Bound CBD was detected using peroxidase-conjugated streptavidin (1:10 000 dilution, Pierce) and chemiluminescence detection.

T1 sequence (P14780 20-707 limits assumed): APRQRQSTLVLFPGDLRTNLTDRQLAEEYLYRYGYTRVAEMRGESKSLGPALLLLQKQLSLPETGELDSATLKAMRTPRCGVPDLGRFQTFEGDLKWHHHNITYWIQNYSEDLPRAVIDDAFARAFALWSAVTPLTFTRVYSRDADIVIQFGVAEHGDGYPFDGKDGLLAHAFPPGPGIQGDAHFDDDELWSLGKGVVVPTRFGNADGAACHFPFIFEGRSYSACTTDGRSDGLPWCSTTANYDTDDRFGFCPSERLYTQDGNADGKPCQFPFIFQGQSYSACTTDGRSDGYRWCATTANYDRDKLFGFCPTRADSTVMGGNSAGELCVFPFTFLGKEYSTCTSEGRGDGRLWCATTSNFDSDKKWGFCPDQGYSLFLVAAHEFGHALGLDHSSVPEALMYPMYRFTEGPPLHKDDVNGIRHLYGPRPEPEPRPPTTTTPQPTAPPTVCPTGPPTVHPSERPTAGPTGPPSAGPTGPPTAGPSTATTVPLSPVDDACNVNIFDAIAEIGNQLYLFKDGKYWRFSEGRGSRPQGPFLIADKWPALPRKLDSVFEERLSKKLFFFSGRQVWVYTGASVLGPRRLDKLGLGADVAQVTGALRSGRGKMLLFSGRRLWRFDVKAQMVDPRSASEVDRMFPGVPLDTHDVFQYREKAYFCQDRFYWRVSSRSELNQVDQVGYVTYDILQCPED
T3 sequence (P14780 223-392 limits assumed): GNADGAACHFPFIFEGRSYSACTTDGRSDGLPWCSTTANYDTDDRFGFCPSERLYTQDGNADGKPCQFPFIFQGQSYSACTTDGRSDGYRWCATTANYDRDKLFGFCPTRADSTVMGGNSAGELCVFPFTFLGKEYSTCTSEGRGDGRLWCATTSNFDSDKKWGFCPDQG
trypsin-activated MMP-9, sequence (P14780 107-707 limits assumed): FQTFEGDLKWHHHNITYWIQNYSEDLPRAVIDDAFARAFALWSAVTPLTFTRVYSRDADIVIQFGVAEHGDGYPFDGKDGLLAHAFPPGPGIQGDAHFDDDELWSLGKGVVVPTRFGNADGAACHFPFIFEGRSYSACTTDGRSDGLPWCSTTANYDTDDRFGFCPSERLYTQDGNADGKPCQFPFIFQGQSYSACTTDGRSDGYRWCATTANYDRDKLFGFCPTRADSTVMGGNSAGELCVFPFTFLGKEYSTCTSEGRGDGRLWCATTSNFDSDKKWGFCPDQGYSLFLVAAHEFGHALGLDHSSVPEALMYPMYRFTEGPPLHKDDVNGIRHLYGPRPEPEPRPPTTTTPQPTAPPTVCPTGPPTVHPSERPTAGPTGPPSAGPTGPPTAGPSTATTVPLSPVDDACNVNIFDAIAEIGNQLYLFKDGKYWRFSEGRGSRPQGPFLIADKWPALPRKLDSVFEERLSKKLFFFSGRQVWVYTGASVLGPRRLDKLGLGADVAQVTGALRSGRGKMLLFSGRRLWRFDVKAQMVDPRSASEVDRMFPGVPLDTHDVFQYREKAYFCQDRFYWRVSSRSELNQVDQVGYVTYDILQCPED
αM integrin I domain, sequence (P11215 150-328 limits assumed): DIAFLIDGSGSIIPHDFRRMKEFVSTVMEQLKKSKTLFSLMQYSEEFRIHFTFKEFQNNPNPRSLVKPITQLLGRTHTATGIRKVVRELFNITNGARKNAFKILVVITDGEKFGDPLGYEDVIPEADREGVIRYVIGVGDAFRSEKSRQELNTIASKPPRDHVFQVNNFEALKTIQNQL
fibronectin, sequence (P02751 306-608 limits assumed): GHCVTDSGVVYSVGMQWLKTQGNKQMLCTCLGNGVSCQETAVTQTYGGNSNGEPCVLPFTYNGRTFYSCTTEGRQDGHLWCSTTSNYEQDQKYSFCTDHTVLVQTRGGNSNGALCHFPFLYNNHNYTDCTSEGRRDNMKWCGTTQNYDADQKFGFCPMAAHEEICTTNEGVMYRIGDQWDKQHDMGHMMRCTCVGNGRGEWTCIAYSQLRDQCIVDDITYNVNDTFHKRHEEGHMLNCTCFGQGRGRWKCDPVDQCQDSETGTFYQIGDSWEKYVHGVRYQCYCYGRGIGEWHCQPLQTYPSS

## O=C(O)[C@@H](Cc1ccccc1)NS(=O)(=O)c1ccc(-c2ccccc2)cc1 [InhI]
uPAR [1]
  Inhibition of uPAR cleavage: inhibited
uPAR [2]; HT1080, InhI 20 μM
  Level of cell surface-bound uPA: reduced
uPAR [2]
  Inhibition of uPAR cleavage: inhibited uPAR cleavage
HT1080 cells
  Inhibition of pericellular gelatinolysis: inhibited

## N=C(N)c1ccccc1 [benzamidine]
uPAR [2]
  Inhibition of uPAR cleavage: not

## ADGACGYGRFSPPCGAAG
pro-MMP-9 [3]
  Binding of PPC peptide-bearing phage to pro-MMP-9, competition: inhibited
  Binding of the CRV-phage to pro-MMP-9, competition: not
[4]
  Inhibition of MMP-2 activity in gelatin degradation assay: inhibited
pro-MMP-9 [5]
  Effect on pro-MMP-9 activation: augmented
αM integrin I domain
  Effect on interaction of MMP-9 with the leukocyte αM integrin I domain: do not affect
αM integrin I domain; typically
  Higher pro-MMP-9 binding to the I domain in the presence of peptide: 20-50%
CBD [6]
  Inhibition of CBD binding to fibronectin and vitronectin: inhibited
CBD [7]
  Inhibition of gelatin binding to immobilized CBD: inhibited gelatin binding to immobilized CBD in a dose dependent manner
THP-1 monocytic cells
  Inhibition of THP-1 migration: inhibitory effect
HT1080 cells
  Inhibition of pericellular gelatinolysis: inhibited
trypsin-activated MMP-9
  Inhibition of MMP-9 activity in gelatin degradation assay: inhibited
HT1080 fibrosarcoma; matrigel, read-out: Concentration required to achieve the same efficacy (50% inhibition of HT1080 invasion)
  pIC50: 3.30
fibronectin
  Effect on gelatin binding to fibronectin: no effect
Gelatinase [8]
  Gelatinase inhibitor strength relative to CTT: weaker gelatinase inhibitor than CTT

## ADGACPSYGPRFGCGAAG [scr. PPC, scrambled control peptide of PPC, reference compound]
[4]
  Inhibition of MMP-2 activity in gelatin degradation assay: no effect
trypsin-activated MMP-9
  Inhibition of MMP-9 activity in gelatin degradation assay: no effect

## CTTHWGFTLC [reference compound]
pro-MMP-9 [3]
  Binding of PPC peptide-bearing phage to pro-MMP-9, competition: not
  Binding of the CRV-phage to pro-MMP-9, competition: not
uPAR [1]
  Inhibition of uPAR cleavage: inhibited
CBD [7]
  Inhibition of gelatin binding to immobilized CBD: not
THP-1 monocytic cells
  Inhibition of THP-1 migration: inhibitory effect
HT1080 cells
  Inhibition of pericellular gelatinolysis: inhibited
HT1080 fibrosarcoma; 200 μM concentration
  Inhibition of HT1080 invasion into matrigel: 50%
Gelatinase [9]
  Inhibition of gelatin degradation: completely inhibits

## TIMP-1: tissue inhibitor of MMPs (Calbiochem)
pro-MMP-9 [3]
  Binding of the CRV-phage to pro-MMP-9, competition: could not compete
MMP-9 C domain
  CRV phage binding to the MMP-9 C domain, competition: could not compete

## TTPNSLLVSWQPPRARIT [PPC-like fibronectin peptide]
CBD [10]
  Binding of biotinylated CBD to peptide on pepspot membrane: bound

## aprotinin
uPAR [1]
  Inhibition of uPAR cleavage: not
uPAR [2]
  Inhibition of uPAR cleavage: not

## gelatin
pro-MMP-9 [3]
  Binding of PPC peptide-bearing phage to pro-MMP-9, competition: inhibited
  Binding of the CRV-phage to pro-MMP-9, competition: not
